# Values joined by “and” are separate entries in the source; they are usually repeats but may differ in a detail not shown here. Equal values may be shown once. Read-outs that look alike come from different tables or passages of the source.
# How the values were obtained:
# [1] = Metabolic stability in rat liver microsomes (RLMs); settings: for microsomal CLint / half-life: rat
# Procedure: Metabolic stability was measured by incubating the peptides (10 μM) with RLMs. Peptides to test were dissolved in DMSO (4 mM), and 1 μl of the resulting solution was added to 365 μl of 0.1 M sodium phosphate buffer (pH 7.4). The solution was pre-warmed at 37 °C for 5 min before starting the reaction by addition of 24 μl of NADPH cofactor solution (22 mM) and 11 μl of RLMs (20 mg ml^−1 protein concentration; Thermo Fisher Scientific, RTMCPL). […] Samples were vortexed, sonicated for 5 min and centrifuged at 16,000g for 10 min. Supernatant was analyzed by LC–MS to quantify the disappearance of the compound and formation of degradation products.
# porcine pepsin = target: T1, porcine pepsin (Sus scrofa, UniProt P00791); assay: Peptide stability in simulated gastric fluid (SGF); format: in vitro ADME
# T1 construct: 0.32 g of porcine pepsin (Sigma-Aldrich, P7125) was dissolved under gentle agitation; purchased Sigma-Aldrich P7125
# T1 sequence (P00791 60-385): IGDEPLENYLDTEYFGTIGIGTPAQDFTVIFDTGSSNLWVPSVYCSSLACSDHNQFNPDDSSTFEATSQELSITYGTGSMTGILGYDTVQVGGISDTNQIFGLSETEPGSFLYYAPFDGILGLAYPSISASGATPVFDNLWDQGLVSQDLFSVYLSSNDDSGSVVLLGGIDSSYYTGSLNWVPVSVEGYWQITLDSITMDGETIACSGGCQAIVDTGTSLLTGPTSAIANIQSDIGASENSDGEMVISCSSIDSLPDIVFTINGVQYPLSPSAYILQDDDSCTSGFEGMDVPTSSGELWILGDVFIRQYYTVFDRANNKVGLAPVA
# In short: (§1)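 Peptide from a 1 mM DMSO stock was added to fluid pre-warmed at 37 °C. SGF was pH 1.2 NaCl with porcine pepsin (0.32 g per 100 ml), and SIF was pH 6.8 potassium phosphate with porcine pancreatin (1 g per 100 ml). Supernatant peptide was quantified by LC–MS, with residual expressed as T1/T0.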
# rat α-thrombin = target: T2, rat α-thrombin (Rattus norvegicus, UniProt P18292); assay: Protease inhibition, Ki for rat α-thrombin (fluorogenic substrate Z-Gly-Gly-Arg-AMC); format: biochemical; settings: rat alpha thrombin; for Slope normalized to DMSO (proteolytic substrate cleavage over time): replicates R1-R3
# T2 construct: rat α-thrombin (Molecular Innovations) were used at final concentrations of 2 nM and 3 nM; purchased Molecular Innovations
# In short: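 Ki values come from Cheng–Prusoff correction of IC50, itself fitted by four-parameter logistic regression of activity versus a no-peptide control. Assays used 2 nM human or 3 nM rat thrombin, 50 μM Z-Gly-Gly-Arg-AMC, 30 min kinetic fluorescence at 25 °C.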
# porcine pancreatin = assay: Peptide stability in simulated intestinal fluid (SIF); format: in vitro ADME; settings: after 8 h vs 0 h (TIC)
# In short: as §1
# [2] = as above; format: in vitro ADME, porcine; settings: simulated gi fluid; 8 h, 37 °C, pH 6.8; read-out: Proteolytic stability: SIF (8 h) % remaining
# In short: as §1
smiles,measurement,setting,value
O=C1C[C@H]2CCCN2C(=O)[C@H](Cc2ccccc2)NC(=O)[C@@H](NC(=O)c2ccc(Cl)s2)CCSCc2cccc(n2)CSCCN1 [compound 33],"TIC value of compound, 0 min, R1","[1]; rat liver microsomes, 0 min, replicate R1",21264470
same,"TIC value of compound, 0 min, R3","[1]; rat liver microsomes, 0 min, replicate R3",18840495
same,"TIC value of compound, 5 min, R1","[1]; rat liver microsomes, 5 min, replicate R1",18437497
same,"TIC value of compound, 5 min, R3","[1]; rat liver microsomes, 5 min, replicate R3",18024716
same,"TIC value of compound, 15 min, R1","[1]; rat liver microsomes, 15 min, replicate R1",13918481
same,"TIC value of compound, 15 min, R3","[1]; rat liver microsomes, 15 min, replicate R3",11416589
same,"TIC value of compound, 30 min, R1","[1]; rat liver microsomes, 30 min, replicate R1",9967302
same,"TIC value of compound, 30 min, R3","[1]; rat liver microsomes, 30 min, replicate R3",7497114
same,"TIC value of compound, 60 min, R1","[1]; rat liver microsomes, 60 min, replicate R1",4659151
same,"TIC value of compound, 60 min, R3","[1]; rat liver microsomes, 60 min, replicate R3",3520876
same,microsomal CLint,"[1]; CL (ul/min/mg protein), R1, RLM CL, replicate R1, unrounded",52.1 µL/min/mg
same,microsomal CLint,"[1]; CL (ul/min/mg protein), R2, RLM CL, replicate R2, unrounded",71 µL/min/mg
same,microsomal CLint,"[1]; CL (ul/min/mg protein), R3, RLM CL, replicate R3, unrounded",58.8 µL/min/mg
same,half-life,"[1]; Half Life (min), R1, RLM metabolic stability, replicate R1",26.6 min
same,half-life,"[1]; Half Life (min), R2, RLM metabolic stability, replicate R2",19.5 min
same,half-life,"[1]; Half Life (min), R3, RLM metabolic stability, replicate R3",23.6 min
same,half-life,"[1]; microsomes, Metabolic stability: Half life T1/2 (min), RLMs, mean and SD, three measurements",23 ± 3 min
same,microsomal CLint,"[1]; microsomes, Metabolic stability: RLM CL (ul/min/mg), RLMs, mean and SD, three measurements",61 ± 8 µL/min/mg
same,microsomal CLint,"[1]; microsomes, RLM CL, Average, average of R1-R3",60.6 µL/min/mg
same,microsomal CLint,"[1]; microsomes, RLM CL, R1, RLM CL, replicate R1, summary block",52.1 µL/min/mg
same,microsomal CLint,"[1]; microsomes, RLM CL, R2, RLM CL, replicate R2, summary block",71 µL/min/mg
same,microsomal CLint,"[1]; microsomes, RLM CL, R3, RLM CL, replicate R3, summary block",58.8 µL/min/mg
same,"SGF stability, Residual peptide Average","porcine pepsin; after 8 h vs 0 h (TIC), average of R1-R3",94.64
same,"SGF stability, Residual peptide","porcine pepsin; after 8 h vs 0 h (TIC), single replicates R1-R3",93.36 and 101.37 and 89.19
same,remaining at 8 h,"porcine pepsin; simulated gi fluid, 8 h, 37 °C, pH 1.2, read-out: Proteolytic stability: SGF (8 h) % remaining",95 ± 6%
same,Ki,"rat α-thrombin; average of R1-R3, read-out: Ki Average, rat alpha thrombin inhibition",48.7 nM
same,Slope normalized to DMSO (proteolytic substrate cleavage over time),rat α-thrombin; peptide 1.02E-03 uM,97.0 and 99.6 and 95.3
same,Slope normalized to DMSO (proteolytic substrate cleavage over time),rat α-thrombin; peptide 1.04E+00 uM,14.5 and 15.6 and 13.7
same,Slope normalized to DMSO (proteolytic substrate cleavage over time),rat α-thrombin; peptide 1.27E-04 uM,100.8 and 101.2 and 98.8
same,Slope normalized to DMSO (proteolytic substrate cleavage over time),rat α-thrombin; peptide 1.30E-01 uM,42.9 and 43.5 and 41.1
same,Slope normalized to DMSO (proteolytic substrate cleavage over time),rat α-thrombin; peptide 1.59E-05 uM,100.2 and 103.5 and 96.9
same,Slope normalized to DMSO (proteolytic substrate cleavage over time),rat α-thrombin; peptide 1.63E-02 uM,81.2 and 82.0 and 78.1
same,Slope normalized to DMSO (proteolytic substrate cleavage over time),rat α-thrombin; peptide 1.67E+01 uM,4.8 and 6.2 and 3.6
same,Slope normalized to DMSO (proteolytic substrate cleavage over time),rat α-thrombin; peptide 2.03E-03 uM,97.0 and 98.5 and 91.0
same,Slope normalized to DMSO (proteolytic substrate cleavage over time),rat α-thrombin; peptide 2.08E+00 uM,9.6 and 11.2 and 10.1
same,Slope normalized to DMSO (proteolytic substrate cleavage over time),rat α-thrombin; peptide 2.54E-04 uM,101.1 and 99.8 and 96.9
same,Slope normalized to DMSO (proteolytic substrate cleavage over time),rat α-thrombin; peptide 2.60E-01 uM,27.4 and 28.5 and 28.0
same,Slope normalized to DMSO (proteolytic substrate cleavage over time),rat α-thrombin; peptide 3.18E-05 uM,101.5 and 104.3 and 97.0
same,Slope normalized to DMSO (proteolytic substrate cleavage over time),rat α-thrombin; peptide 3.26E-02 uM,78.3 and 77.8 and 74.1
same,Slope normalized to DMSO (proteolytic substrate cleavage over time),rat α-thrombin; peptide 3.33E+01 uM,5.1 and 5.9 and 3.3
same,Slope normalized to DMSO (proteolytic substrate cleavage over time),rat α-thrombin; peptide 4.07E-03 uM,94.4 and 95.7 and 92.3
same,Slope normalized to DMSO (proteolytic substrate cleavage over time),rat α-thrombin; peptide 4.17E+00 uM,6.3 and 7.7 and 3.6
same,Slope normalized to DMSO (proteolytic substrate cleavage over time),rat α-thrombin; peptide 5.09E-04 uM,98.0 and 98.3 and 95.3
same,Slope normalized to DMSO (proteolytic substrate cleavage over time),rat α-thrombin; peptide 5.21E-01 uM,18.6 and 18.9 and 16.5
same,Slope normalized to DMSO (proteolytic substrate cleavage over time),rat α-thrombin; peptide 6.36E-05 uM,100.6 and 99.7 and 96.2
same,Slope normalized to DMSO (proteolytic substrate cleavage over time),rat α-thrombin; peptide 6.51E-02 uM,60.0 and 58.6 and 62.0
same,Slope normalized to DMSO (proteolytic substrate cleavage over time),rat α-thrombin; peptide 6.67E+01 uM,5.5 and 6.9 and 1.9
same,Slope normalized to DMSO (proteolytic substrate cleavage over time),rat α-thrombin; peptide 7.95E-06 uM,105.3 and 103.4 and 99.9
same,Slope normalized to DMSO (proteolytic substrate cleavage over time),rat α-thrombin; peptide 8.14E-03 uM,89.5 and 90.6 and 84.9
same,Slope normalized to DMSO (proteolytic substrate cleavage over time),rat α-thrombin; peptide 8.33E+00 uM,6.7 and 6.6 and 4.7
same,IC50,"rat α-thrombin; single replicates R1-R3, read-out: IC50, rat alpha thrombin inhibition",86.2 nM and 82.3 nM and 95.4 nM
same,Ki,"rat α-thrombin; single replicates R1-R3, read-out: Ki, rat alpha thrombin inhibition",47.7 nM (2×) and 45.6 nM (2×) and 52.8 nM (2×)
same,"SIF stability, Residual peptide Average",porcine pancreatin; average of R1-R3,68.57
same,"SIF stability, Residual peptide",porcine pancreatin; single replicates R1-R3,74.90 and 62.29 and 68.52
same,remaining at 8 h,[2],69 ± 6%

# Source: article PMC11062899, “De novo development of small cyclic peptides that are orally bioavailable” (Nature Chemical Biology, 2023)
